Structures can show the parent of a compound that is named as a salt.

The test system of data set [1] is mortality induced by histamine. The data set is described as follows: Effect on the mortality induced by histamine. It is filed as in vivo, male albino guinea pigs (Dunkin-Hartley). The note with it: Cavia porcellus, po; guinea pig, p.o., 60 minutes before 1.25 mg/kg i.v. histamine dihydrochloride; 50% inhibition of mortality; read-out: Mortality induced by hystamine ED50 p.o. As for the experimental part:
EFFECT ON THE MORTALITY INDUCED BY HISTAMINE
The method described by Romer D. et al. (Med. Welt. 17,791,1966) was followed and the tests were carried out on male albino guinea pigs (Dunkin-Hartley), weighing 350 to 450 g which were kept in cages with a grid floor, on an empty stomach for 24 hours with water ad libitum. The compounds under examination have been orally administered to the animals, dissolved in 0.5% carboxymethylcellulose, 60 minutes before intravenous administration of 1.25 mg/kg of histamine dihydrochloride in saline solution. In the control animals, treated with carboxymethylcellulose, the intravenous administration of histamine dihydrochloride induced a 100% mortality.
It has been evaluated ED50, which corresponds to the amount of the compound able inhibit to 50% the mortality induced by histamine: estimation of ED50 has been made applying the `probit` method (Finney D. J. "Statistical method in biological assay", pg 512,1957).

Data set [2] deals with mortality induced by compound 48/80. The data set is described as follows: Mortality inhibition by compound 48/80. It is filed as in vivo, Sprague Dawley Nos male rats. The following applies: ip; rat, i.p., 30 minutes before 2 mg/kg i.v. compound 48/80; observed 4 hours. As for the experimental part:
MORTALITY INHIBITION BY COMPOUND 48/80
For evaluating the protection of the mortality induced by compound 48/80 administration the method described by C. J. E. Niemegeers et al. (Arch. Int. Pharmacodyn, 234,164,1978) was followed.
Sprague Dawley Nos male rats (Nossan, Correzzana, Milano) weighing 140 to 150 g, divided into groups of 10 animals each, on an empty stomach for 24 hours with water "ad libitum", were kept in cages with a grid floor, and treated intravenously with 2 mg/kg of compound 48/80 (1 ml/rat).
The animals were kept under observation for 4 hours taking note of their mortality. The results were expressed as the number of animals dead with respect to the number of treated animals. Compounds under examination or the carrier were administered 30 minutes before administration of compound 48/80 by intraperitoneal route, dissolved in H2 O (5 ml/kg) or suspended in 0.5% carboxymethylcellulose. The experimental data were submitted to the variance analysis and to subsequent multiple comparisons according to Dunnet (D. J. Finney, in "Statistical Methods in Biological assay", Ed. L. Griffin and Co. Ltd., pag. 152,1957, Edition Ames Iowa, 1971).

The nature of data set [3]: Evaluation of the lethal dose50 (LD50), acute toxicity. The following applies: in vivo, ip; mouse, 14 days; probit method. As for the experimental part: EVALUATION OF THE LETHAL DOSE50 (LD50)
Swiss Nos (Nossau, Correzzana, Milano) mice, weighing 18 to 20 g each, on an empty stomach for 18 hours with water "ad libitum" and kept in cages with grid floor, were used. The animals, divided into groups of 10 animals each, (5M+5F) were treated intraperitoneally (10 ml/kg) with the compounds under examination dissolved in water or suspended in 0.5% carboxymethyl-cellulose. The animals were kept in the cages and the mortality occurred within the following 6 hours was noted down. At the expiring of the 6 hours the animals were allowed to eat up to the end of the experimentation which lasted 14 days. During this period all the toxic symptoms and the mortality occuring were noted.
The animals which died during the test period and those which were sacrificed at the end of the same, underwent autopsy for a macroscopic examination of their main organs. The experimental data were statistically compared with the X^2 method and LD50 was extrapolated by the `probit` method.

On to `CCOCCn1c(C2CCN(C)CC2)nc2cccnc21` [Example 2, 3-(2-Ethoxyethyl)-2-(1-methylpiperidin-4-yl)-3H-imidazo [4,5-b] pyridine 1.5 fumarate], for which the ED50 in data set [1] was found to be 0.042 mg/kg; in data set [2], 0.34 mg/kg. In data set [3], the LD50 at 336 h came out at 500 mg/kg.
For `CCOCCn1c(C2CCCN(C)C2)nc2cccnc21.O=C(O)/C=C/C(=O)O.O=C(O)/C=C/C(=O)O` (stereo not drawn) [Example 5, 3-(2-Ethoxyethyl)-2-(1-methylpiperidin-3-yl)-3H-imidazo [4,5-b] pyridine difumarate], the ED50 came out at 0.05 mg/kg in data set [1] and 0.59 mg/kg in data set [2]. Moreover, the median lethal dose (LD50) at 336 h in data set [3] was under 100 mg/kg.
For `CN1CCCC(c2nc3cccnc3n2Cc2ccccc2)C1` (stereo not drawn) [Example 8, 3-Benzyl-2-(1-methylpiperidin-3-yl)-3H-imidazo [4,5-b] pyridine], in data set [1], the ED50 came to 0.078 mg/kg. This molecule also registered an LD50 at 336 h in data set [3] of over 100 mg/kg.
On to `CC(C)(C)c1ccc(C(O)CCCN2CCC(C(O)(c3ccccc3)c3ccccc3)CC2)cc1` (stereo not drawn) [Terfenadine, reference compound], for which it took a dose of 1.99 mg/kg to reach the 50% effect level in data set [2] (ED50).

Values taken from US5071855A, “Pharmacologically active piperidinylimidazopyridine compounds” (Dompe Farmaceutici SpA, priority 1989, dated 1991).
